# In the SangsterLogP compilation:
row,Compound,logP
1,CC1=C(c2ccccc2)CCN(C)C1,3.18
2,CCN1CC=C(c2ccccc2)CC1,3.18
3,CN1CC=C(c2cccc(N)c2)CC1,1.47
4,CN1CC=C(c2ccc(Cl)cc2)CC1,3.32
5,OCCN1CC=C(c2ccccc2)CC1,2
6,Cc1ccccc1C1=CCN(C)CC1,3.1
7,CN1CC=C(c2cccs2)CC1,2.51
8,CN1CC=C(c2ccc(N)cc2)CC1,1.48
9,CN1CC=C(c2ccncc2)CC1,1.25
10,Fc1ccc(C2=CCNCC2)cc1,2.37
11,C1=C(c2ccccc2)CCN(CCc2ccccc2)C1,3.98
12,C1=C(c2ccccc2)CCNC1,1.99
